# Data reported in EP4345091A1, “BENZOIC ACID DERIVATIVES, METHODS AND USES THEREOF” (priority 2022, dated 2024).
# Where two headings read alike, the source gives them in different places.
# Key:
# M. smegmatis mc2 155 = assay: MIC and MBC against M. smegmatis; format: cell-based
# M. avium DSM 44156 = assay: MIC and MBC against M. avium; format: cell-based
# [1] = system: Mycobacterium tuberculosis H37Rv; assay: MIC and MBC by broth microdilution against M. tuberculosis H37Rv; format: cell-based, Mycobacterium tuberculosis H37Rv (ATCC 27294)
# [2] = Stability in human plasma (enzymatic hydrolysis)
# Description: The studies of stability in human plasma were performed in human plasma diluted to 80% with phosphate buffer pH 7.4 of total concentration 0.05 M and ionic strength 0.15 M at 37°C. […] Study of enzymatic hydrolysis. […] Initial substrate concentration (ester) - 5×10^-4M with 2% ACN.
# Pooled human plasma (960 µL), pH 7.4 phosphate buffered saline (216 µL), 18 µL ACN and 6 µL of a 10-1 M stock solution of the prodrug in ACN were mixed in a 2mL vial. The suspensions were incubated at 37 °C and 50 µL aliquots were removed, mixed with 450 µL of ACN: ZnSO4 1% 1:1 and centrifuged. The supernatant was removed and analysed by HPLC, the remaining substrate and the correspondent acid measured.
# Two HPLC systems were used. The buffer and plasma stability studies were performed in an HPLC system with a photodiode detector L-3000 Photo Diode Array Detector, Merck-Hitachi L-6000 pump, Merck-Hitachi D-2500 integrator, and Merck RP-8 column. […] The eluant was a mixture of acetonitrile (60%/70%) and aqueous phosphate buffer with 5% of KH2PO4/H3PO4 0.025M (40%/30%). The flow rate was always 1 mL/1 min and wavelength was set at 230 nm. All quantifications were evaluated using calibration curves from stock solutions.
# The initial substrate concentration was 5 x 10^-4 M in all stability assays. All incubations were carried out at pH 7.4 and 37 °C under agitation using the phosphate buffer described above as diluting agent. […] Acetonitrile (2%) was used in all studies to ensure adequate solubilization of the substrates. The benzoates were added from 10 to 1M acetonitrile stock solutions. After incubation, aliquots of 50 µL were taken into vials containing 450 µL of a 1:1 solution of 1% zinc sulfate and acetonitrile, mixed in a vortex and centrifuged for 10 min at 15,000 rpm. The supernatant was then injected into the HPLC and analysed for quantification of benzoic acid and remaining benzoate. All quantifications were performed using calibration curves.
# [3] = Chemical stability in phosphate buffer pH 7.4
# Description: (§3) Chemical hydrolysis was evaluated in phosphate buffer at physiological pH (7.4) to determine its influence in enzymatic studies.
# (§4) 1176 µL pH 7.4 phosphate buffer or pH 5.9 phosphate buffer, 18 µL ACN and 6 µL of a 10-1 M stock solution of the prodrug in ACN were mixed in a 2mL vial. The solution was incubated at 37 °C and 50 µL aliquots were removed, mixed with 450 µL of ACN: H2O 1:1. The solution was analysed by HPLC, the remaining substrate and the correspondent acid were both measured.
# (§5) The eluant was a mixture of acetonitrile (60%/70%) and aqueous phosphate buffer with 5% of KH2PO4/H3PO4 0.025M (40%/30%). The flow rate was always 1 mL/1 min and wavelength was set at 230 nm. All quantifications were evaluated using calibration curves from stock solutions.
# (§6) The initial substrate concentration was 5 x 10^-4 M in all stability assays. All incubations were carried out at pH 7.4 and 37 °C under agitation using the phosphate buffer described above as diluting agent. […] Acetonitrile (2%) was used in all studies to ensure adequate solubilization of the substrates.
# [4] = system: human monocytic cell line THP-1 (ATCC56 TIB202); assay: Cytotoxicity assay in THP-1 cells; format: cell-based; conditions: toxicity/activity index: ratio LC50 (THP-1) / MIC (M. tuberculosis H37Rv)
# Description: (§1) Cytotoxicity results were obtained through lethal concentration for 50% of the cell population, LC50. Table 6. Results obtained from cytotoxicity assays for the esters, represented by LD50 in µg/mL and comparison with MIC values, in µg/mL with toxicity/activity (T/A) index.
# (§2) The T/A index quantitatively is the ratio between the lethal concentration (LC50) given by the minimum inhibitory concentration (MIC).
# [5] = Cytotoxicity assay in THP-1 cells; format: cell-based, human; conditions: human; THP-1 cells; lethal concentration for 50% of the cell population; read-out: LC50 (the source's name)
# Description: as §1, §2
# [6] = system: Mycobacterium smegmatis homogenate; assay: Stability in Mycobacterium smegmatis homogenate (enzymatic hydrolysis); conditions: Mycobacterium smegmatis homogenate, 37°C
# M. bovis BCG = assay: microbe, parasite or virus in culture; format: cell-based; conditions: Mycobacterium tuberculosis variant bovis BCG
# [7] = system: Mycobacterium Bovis BCG infecting human macrophages THP-1; format: cell-based; conditions: compound concentration 2 µg/ml
# [8] = Stability in Mycobacterium smegmatis homogenate (enzymatic hydrolysis); conditions: mycobacterium smegmatis homogenate, pH 7.4
# [9] = pH 7.4
# Description: as §3, §4, §5, §6
# [10] = Mycolicibacterium smegmatis, MC2155
# [11] = Mycobacterium tuberculosis, H37RV, M. tuberculosis H37Rv, Table 3
# [12] = Mycobacterium tuberculosis, H37RV, M. tuberculosis H37Rv, Table 4
# [13] = Mycobacterium tuberculosis, H37RV, M. tuberculosis H37Rv, Tables 3, 6 and 7
Molecule,MBC (M. smegmatis mc2 155; [10]),MIC (M. smegmatis mc2 155; [10]),"MBC (M. avium DSM 44156; Mycobacterium avium, DSM44156)","MIC (M. avium DSM 44156; Mycobacterium avium, DSM44156)","MBC [1, 11]","MBC [1, 12]","MIC [1, 12]","MIC [1, 13]",T/A [4],CC50 [5],Degradation (%) 24h [6],Degradation (%) 48h [6],MBC (M. bovis BCG),MIC (M. bovis BCG),CFU x10^4 ([7]; Time 0 days),CFU x10^4 ([7]; Time 1 day),CFU x10^4 ([7]; Time 3 days),CFU x10^4 ([7]; Time 7 days),further results
N-butyl-3.5-dinitrobenzamide [Compound 7a],–,–,–,–,–,–,–,–,–,–,–,–,–,–,–,–,–,–,MBC (M. smegmatis mc2 155; M. smegmatis mc2 155): 4 µg/mL; MIC (M. smegmatis mc2 155; M. smegmatis mc2 155): 4 µg/mL; MBC (M. avium DSM 44156; M. avium DSM 44156): 512 µg/mL; MIC (M. avium DSM 44156; M. avium DSM 44156): 64 µg/mL; MBC [1]: 0.5 µg/mL; MIC [1]: 0.5 µg/mL
"CCCCCCCCCCCCNC(=O)c1cc([N+](=O)[O-])cc([N+](=O)[O-])c1 [Compound 7e, N-dodecyl-3.5-dinitrobenzamide]",> 2.66 µg/mL,0.66 µg/mL,> 341 µg/mL,> 341 µg/mL,0.5 µg/mL,0.5 µg/mL,0.5 µg/mL,0.5 µg/mL,144,72 µg/mL,1%,2%,0.166 µg/mL,0.083 µg/mL,–,–,–,–,Degradation (%) 24h ([2]; 24h): 0%; Degradation (%) 48h ([2]; 48h): 0%; Degradation (%) 72h ([2]; 72h): 0%; Degradation (%) 24h ([3]; 24h): 0%; Degradation (%) 48h ([3]; 48h): 0%; Degradation (%) 72h ([3]; 72h): 0%; Degradation (%) 168h ([3]; 168h): 0%; Degradation (%) 332h ([3]; 332h): 0%
"CCCCCCNC(=O)c1cc([N+](=O)[O-])cc([N+](=O)[O-])c1 [Compound 7b, N-hexyl-3.5-dinitrobenzamide]",1 µg/mL,1 µg/mL,–,–,0.031 µg/mL,≤ 0.5 µg/mL,≤ 0.5 µg/mL,0.031 µg/mL,11645,361 µg/mL,18%,33%,0.25 µg/mL,0.25 µg/mL,9.2 CFUs per mL,4.58 CFUs per mL,0.40 CFUs per mL,0.05 CFUs per mL,half-life at 500 µM [8]: 82.5 ± 1.4 h
"CCCCCCCCNC(=O)c1cc([N+](=O)[O-])cc([N+](=O)[O-])c1 [Compound 7c, N-octyl-3.5-dinitrobenzamide]",4 µg/mL,0.25 µg/mL,64 µg/mL,32 µg/mL,0.016 µg/mL,≤ 0.062 µg/mL,≤ 0.062 µg/mL,0.016 µg/mL,6063,97 µg/mL,3%,5%,0.015 µg/mL,0.015 µg/mL,–,–,–,–,Degradation (%) 24h [9]: 0%; Degradation (%) 48h [9]: 0%; Degradation (%) 72h [9]: 0%; Degradation (%) 168h [9]: 0%; Degradation (%) 332h [9]: 0%
"CCCCCCCCCCCCCCNC(=O)c1cc([N+](=O)[O-])cc([N+](=O)[O-])c1 [Compound 7f, N-tetradecyl-3.5-dinitrobenzamide]",4 µg/mL,1 µg/mL,–,–,0.25 µg/mL,≤ 0.5 µg/mL,≤ 0.5 µg/mL,0.125 µg/mL,2640,330 µg/mL,1%,2%,0.25 µg/mL,0.25 µg/mL,9.2 CFUs per mL,14.16 CFUs per mL,10.08 CFUs per mL,13.91 CFUs per mL,–
"CCCCCCCCCCNC(=O)c1cc([N+](=O)[O-])cc([N+](=O)[O-])c1 [Compound 7d, N-decyl-3.5-dinitrobenzamide]",1 µg/mL,1 µg/mL,–,–,0.063 µg/mL,≤ 0.5 µg/mL,≤ 0.5 µg/mL,0.063 µg/mL,841,53 µg/mL,1%,2%,0.062 µg/mL,0.062 µg/mL,9.2 CFUs per mL,7.33 CFUs per mL,0.32 CFUs per mL,0.03 CFUs per mL,–
